Results on two compounds are retold here after paper PMC3639963, “A New Class of Small Molecule Inhibitor of BMP Signaling” (PLoS ONE, 2013).

“And” between values parts separate entries of the source, which are not always exact repeats. Equal values may be shown once.

For test [1], the system named is C2C12 cells. The conditions noted are these: cited from earlier work.
Test [2] has as its system ALK2. More on the design: method as in PMID 19914855. The conditions noted are these: read-out: reported in vitro IC50 (enzymatic assays); cited from earlier work.
Test [3] concerns the target T1, ALK6 (Homo sapiens, UniProt O00238).
T1 construct: purchased Nanosyn (enzymatic panel); SGC in-house recombinant human kinases (DSF panel); Invitrogen (ALK1-6)
In words: In vitro kinase assay ([γ-32P]ATP). In kind it is biochemical. The conditions noted are these: at the Km value of ATP; triplicate. As for the experimental part:
(§1) Inhibitors were added at concentrations between 0 and 10 µM in kinase reaction buffer and tested in triplicate.

Test [4] deals with T2, ALK4 (Homo sapiens, UniProt P36896).
T2 construct: purchased Invitrogen
T2 sequence (P36896 24-505): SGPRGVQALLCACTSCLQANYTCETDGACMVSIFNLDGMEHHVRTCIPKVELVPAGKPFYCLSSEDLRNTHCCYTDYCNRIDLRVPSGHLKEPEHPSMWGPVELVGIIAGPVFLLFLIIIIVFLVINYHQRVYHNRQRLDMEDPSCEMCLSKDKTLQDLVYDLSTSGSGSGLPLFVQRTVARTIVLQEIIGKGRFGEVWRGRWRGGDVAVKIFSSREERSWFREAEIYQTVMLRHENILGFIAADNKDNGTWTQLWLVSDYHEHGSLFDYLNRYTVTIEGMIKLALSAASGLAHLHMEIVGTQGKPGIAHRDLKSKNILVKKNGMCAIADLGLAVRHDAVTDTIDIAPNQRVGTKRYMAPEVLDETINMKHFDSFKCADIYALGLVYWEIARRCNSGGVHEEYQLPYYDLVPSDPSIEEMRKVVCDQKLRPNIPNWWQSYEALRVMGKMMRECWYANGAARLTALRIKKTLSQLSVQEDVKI
In words: In vitro kinase assay ([γ-32P]ATP). It is filed as biochemical. The conditions noted are these: at the Km value of ATP; triplicate. As for the experimental part: as §1

Test [5] concerns the target T3, ALK1 (Homo sapiens, UniProt P37023).
T3 construct: purchased Nanosyn (enzymatic panel); SGC in-house recombinant human kinases (DSF panel); Invitrogen (ALK1-6)
In words: In vitro kinase assay ([γ-32P]ATP). It is filed as biochemical. The conditions noted are these: at the Km value of ATP; triplicate. As for the experimental part: as §1

The target in test [6] is T4, ALK3 (Homo sapiens, UniProt P36894).
T4 construct: purchased Nanosyn (enzymatic panel); SGC in-house recombinant human kinases (DSF panel); Invitrogen (ALK1-6)
In words: In vitro kinase assay ([γ-32P]ATP). It is filed as biochemical. The conditions noted are these: at the Km value of ATP; triplicate. As for the experimental part:
as §1

Test [7] has as its system Tg(BRE:mRFP) transgenic zebrafish embryos. In words: Dorsalization of zebrafish embryos. It is filed as in vivo. The conditions noted are these: treated from the 8- to 16-cell stage, scored at 26 hours. As for the experimental part: The zebrafish colony was maintained as described and embryos were raised at 28.5°C. The Tg(BRE:mRFP) transgenic line (also called BRE-mRFP) has been described previously and expresses mRFP in response to BMP signaling. […] Inhibitor stocks were diluted in DMSO and then further diluted in fish water to give the required inhibitor concentrations. To minimize the amount of inhibitors used, experiments were performed in 24-well plates with approximately 20 embryos per well in a volume of 1 mL. The chemical treatment was applied by immersing 8- to 16-cell stage Tg(BRE:mRFP) embryos (dorsalization experiment) or 12 hours old […]) embryos (ISV experiment) in the fish water supplemented with DMSO or the chemical inhibitors. For the ISV experiment, embryos were manually dechorionated after bud stage before treatment. Embryos were scored and photographed at 26 or 48 hours.

The target of test [8] is T5, MAP4K4 (Homo sapiens, UniProt O95819).
T5 construct: purchased Nanosyn (enzymatic panel); SGC in-house recombinant human kinases (DSF panel); Invitrogen (ALK1-6)
As to the kind of experiment: Nanosyn kinase profiling. In kind it is biochemical. The conditions noted are these: read-out: Percentage inhibition. As for the experimental part:
(§2) Percentage inhibition was determined for each kinase at both 0.1 µM and 1 µM inhibitor concentration (supplemental Table S2).
(§3) Inhibitor selectivity profiling against 200 human kinases at 0.1 and 1 µM inhibitor concentration was performed by Nanosyn (www.nanosyn.com).

For test [9], the target named is T6, BRAF (Homo sapiens, UniProt P15056).
T6 construct: purchased Nanosyn (enzymatic panel); SGC in-house recombinant human kinases (DSF panel); Invitrogen (ALK1-6)
As to the kind of experiment: Nanosyn kinase profiling. The conditions noted are these: read-out: Percentage inhibition. It is filed as biochemical. As for the experimental part: as §2, §3

Test [10] concerns the target T7, MINK (Homo sapiens, UniProt Q8N4C8).
T7 construct: purchased Nanosyn (enzymatic panel); SGC in-house recombinant human kinases (DSF panel); Invitrogen (ALK1-6)
In words: Nanosyn kinase profiling. In kind it is biochemical. The conditions noted are these: read-out: Percentage inhibition. As for the experimental part:
as §2, §3

The target in test [11] is T8, FMS (Homo sapiens, UniProt P07333).
T8 construct: purchased Nanosyn (enzymatic panel); SGC in-house recombinant human kinases (DSF panel); Invitrogen (ALK1-6)
As to the kind of experiment: Nanosyn kinase profiling. The conditions noted are these: read-out: Percentage inhibition. It is filed as biochemical. As for the experimental part: as §2, §3

In test [12] the target is T9, FLT3 (Homo sapiens, UniProt P36888).
T9 construct: purchased Nanosyn (enzymatic panel); SGC in-house recombinant human kinases (DSF panel); Invitrogen (ALK1-6)
As to the kind of experiment: Nanosyn kinase profiling. It is filed as biochemical. The conditions noted are these: read-out: Percentage inhibition. As for the experimental part: as §2, §3

T5 sequence (O95819 whole entry): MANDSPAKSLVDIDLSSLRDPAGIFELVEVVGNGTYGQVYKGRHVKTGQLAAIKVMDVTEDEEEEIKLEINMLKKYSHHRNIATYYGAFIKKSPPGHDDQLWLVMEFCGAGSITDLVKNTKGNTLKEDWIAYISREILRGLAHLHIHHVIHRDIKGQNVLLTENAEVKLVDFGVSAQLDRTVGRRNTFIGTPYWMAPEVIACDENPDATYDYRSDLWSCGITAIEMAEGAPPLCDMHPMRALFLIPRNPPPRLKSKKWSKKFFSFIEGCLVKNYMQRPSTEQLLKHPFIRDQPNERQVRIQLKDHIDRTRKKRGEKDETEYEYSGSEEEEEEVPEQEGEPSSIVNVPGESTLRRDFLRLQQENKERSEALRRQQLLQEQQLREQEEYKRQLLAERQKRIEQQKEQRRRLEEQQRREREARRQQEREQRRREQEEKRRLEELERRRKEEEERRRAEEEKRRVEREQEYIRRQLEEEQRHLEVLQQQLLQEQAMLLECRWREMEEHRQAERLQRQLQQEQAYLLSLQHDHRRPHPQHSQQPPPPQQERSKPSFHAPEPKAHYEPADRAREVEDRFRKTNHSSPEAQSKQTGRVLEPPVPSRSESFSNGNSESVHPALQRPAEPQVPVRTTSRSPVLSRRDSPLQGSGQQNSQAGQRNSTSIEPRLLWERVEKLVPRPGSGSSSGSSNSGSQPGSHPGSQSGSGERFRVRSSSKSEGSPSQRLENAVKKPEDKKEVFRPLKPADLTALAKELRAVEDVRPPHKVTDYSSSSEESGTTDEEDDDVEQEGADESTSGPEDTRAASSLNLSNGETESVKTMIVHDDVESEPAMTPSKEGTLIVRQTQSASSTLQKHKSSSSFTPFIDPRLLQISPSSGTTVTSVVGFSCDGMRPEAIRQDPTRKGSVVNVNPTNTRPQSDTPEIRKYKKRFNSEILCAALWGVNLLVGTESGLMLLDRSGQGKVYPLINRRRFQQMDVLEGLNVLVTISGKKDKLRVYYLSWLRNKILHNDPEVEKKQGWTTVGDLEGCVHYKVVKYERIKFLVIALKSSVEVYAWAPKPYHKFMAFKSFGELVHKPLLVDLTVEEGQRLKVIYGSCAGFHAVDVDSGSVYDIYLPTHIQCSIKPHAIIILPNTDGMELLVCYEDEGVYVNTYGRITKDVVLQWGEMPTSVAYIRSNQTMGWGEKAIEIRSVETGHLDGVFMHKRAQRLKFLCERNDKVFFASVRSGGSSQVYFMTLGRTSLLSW
T9 sequence (P36888 27-993): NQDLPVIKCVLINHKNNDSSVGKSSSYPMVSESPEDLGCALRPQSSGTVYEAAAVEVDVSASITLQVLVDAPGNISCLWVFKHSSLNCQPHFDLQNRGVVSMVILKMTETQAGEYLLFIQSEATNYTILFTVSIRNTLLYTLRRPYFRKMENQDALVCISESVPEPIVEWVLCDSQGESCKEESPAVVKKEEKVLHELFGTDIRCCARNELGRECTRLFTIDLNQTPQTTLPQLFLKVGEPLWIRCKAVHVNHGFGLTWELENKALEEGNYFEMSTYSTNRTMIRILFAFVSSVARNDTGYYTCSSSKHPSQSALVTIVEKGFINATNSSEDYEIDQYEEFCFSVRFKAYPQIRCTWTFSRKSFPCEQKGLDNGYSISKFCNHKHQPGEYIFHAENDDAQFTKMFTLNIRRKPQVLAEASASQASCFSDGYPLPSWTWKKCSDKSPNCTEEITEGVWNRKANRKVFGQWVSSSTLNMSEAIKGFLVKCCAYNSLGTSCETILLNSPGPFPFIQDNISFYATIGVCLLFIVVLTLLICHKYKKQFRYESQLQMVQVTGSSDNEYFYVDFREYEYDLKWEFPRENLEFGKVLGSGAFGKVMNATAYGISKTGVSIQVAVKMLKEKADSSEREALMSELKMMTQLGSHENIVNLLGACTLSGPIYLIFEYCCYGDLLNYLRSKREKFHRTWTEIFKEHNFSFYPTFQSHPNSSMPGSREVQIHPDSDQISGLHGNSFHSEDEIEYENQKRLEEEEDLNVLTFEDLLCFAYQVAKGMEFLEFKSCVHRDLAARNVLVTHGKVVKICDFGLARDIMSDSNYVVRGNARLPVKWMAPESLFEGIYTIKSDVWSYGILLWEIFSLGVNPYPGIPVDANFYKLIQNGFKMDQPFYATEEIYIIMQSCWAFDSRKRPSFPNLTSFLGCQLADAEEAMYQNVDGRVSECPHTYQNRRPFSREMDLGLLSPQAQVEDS
T7 sequence (Q8N4C8 whole entry): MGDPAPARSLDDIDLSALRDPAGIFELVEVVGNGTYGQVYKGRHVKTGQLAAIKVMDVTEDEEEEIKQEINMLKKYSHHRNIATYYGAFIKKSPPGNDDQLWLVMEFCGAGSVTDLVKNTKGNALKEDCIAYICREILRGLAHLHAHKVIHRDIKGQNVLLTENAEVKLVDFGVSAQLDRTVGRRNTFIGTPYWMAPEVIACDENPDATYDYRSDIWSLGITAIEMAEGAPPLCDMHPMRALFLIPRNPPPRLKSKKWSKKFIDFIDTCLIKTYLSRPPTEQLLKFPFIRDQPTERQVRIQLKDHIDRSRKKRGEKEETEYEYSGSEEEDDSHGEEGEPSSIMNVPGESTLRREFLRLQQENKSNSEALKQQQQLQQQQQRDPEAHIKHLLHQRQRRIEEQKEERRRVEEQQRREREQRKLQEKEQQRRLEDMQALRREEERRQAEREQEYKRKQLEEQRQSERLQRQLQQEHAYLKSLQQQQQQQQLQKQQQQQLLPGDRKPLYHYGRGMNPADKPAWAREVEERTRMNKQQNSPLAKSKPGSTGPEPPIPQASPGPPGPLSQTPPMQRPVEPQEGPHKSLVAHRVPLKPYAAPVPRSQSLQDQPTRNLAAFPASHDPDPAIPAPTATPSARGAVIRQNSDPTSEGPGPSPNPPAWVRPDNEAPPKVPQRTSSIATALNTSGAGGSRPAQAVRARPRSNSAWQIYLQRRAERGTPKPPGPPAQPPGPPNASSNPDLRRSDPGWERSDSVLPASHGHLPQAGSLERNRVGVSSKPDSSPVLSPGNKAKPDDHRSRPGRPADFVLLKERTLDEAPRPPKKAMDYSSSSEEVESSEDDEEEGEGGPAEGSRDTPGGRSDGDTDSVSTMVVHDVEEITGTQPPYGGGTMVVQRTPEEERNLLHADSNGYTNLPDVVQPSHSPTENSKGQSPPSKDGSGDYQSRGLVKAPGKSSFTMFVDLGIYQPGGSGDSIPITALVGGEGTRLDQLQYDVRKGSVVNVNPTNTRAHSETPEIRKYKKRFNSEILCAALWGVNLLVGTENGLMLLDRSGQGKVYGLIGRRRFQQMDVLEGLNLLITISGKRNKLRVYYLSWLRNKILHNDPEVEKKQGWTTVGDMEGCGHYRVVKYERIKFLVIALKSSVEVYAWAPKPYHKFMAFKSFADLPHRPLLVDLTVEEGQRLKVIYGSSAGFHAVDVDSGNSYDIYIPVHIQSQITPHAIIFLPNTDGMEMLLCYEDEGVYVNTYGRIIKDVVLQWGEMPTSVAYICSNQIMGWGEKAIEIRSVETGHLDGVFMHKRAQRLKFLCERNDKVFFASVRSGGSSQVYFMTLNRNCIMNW
T3 sequence (P37023 22-503): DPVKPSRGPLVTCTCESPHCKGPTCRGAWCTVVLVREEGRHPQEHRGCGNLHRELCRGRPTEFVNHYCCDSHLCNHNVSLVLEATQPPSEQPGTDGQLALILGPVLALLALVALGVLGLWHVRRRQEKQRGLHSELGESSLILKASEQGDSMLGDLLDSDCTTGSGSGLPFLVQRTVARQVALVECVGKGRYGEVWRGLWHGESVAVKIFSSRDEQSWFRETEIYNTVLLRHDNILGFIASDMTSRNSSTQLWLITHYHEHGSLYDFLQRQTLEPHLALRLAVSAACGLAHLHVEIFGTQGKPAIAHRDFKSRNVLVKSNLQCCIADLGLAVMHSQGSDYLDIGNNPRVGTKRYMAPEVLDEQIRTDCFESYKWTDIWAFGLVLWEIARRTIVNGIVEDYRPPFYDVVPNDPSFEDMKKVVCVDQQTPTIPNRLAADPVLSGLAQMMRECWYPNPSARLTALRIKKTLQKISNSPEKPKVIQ
T6 sequence (P15056 whole entry): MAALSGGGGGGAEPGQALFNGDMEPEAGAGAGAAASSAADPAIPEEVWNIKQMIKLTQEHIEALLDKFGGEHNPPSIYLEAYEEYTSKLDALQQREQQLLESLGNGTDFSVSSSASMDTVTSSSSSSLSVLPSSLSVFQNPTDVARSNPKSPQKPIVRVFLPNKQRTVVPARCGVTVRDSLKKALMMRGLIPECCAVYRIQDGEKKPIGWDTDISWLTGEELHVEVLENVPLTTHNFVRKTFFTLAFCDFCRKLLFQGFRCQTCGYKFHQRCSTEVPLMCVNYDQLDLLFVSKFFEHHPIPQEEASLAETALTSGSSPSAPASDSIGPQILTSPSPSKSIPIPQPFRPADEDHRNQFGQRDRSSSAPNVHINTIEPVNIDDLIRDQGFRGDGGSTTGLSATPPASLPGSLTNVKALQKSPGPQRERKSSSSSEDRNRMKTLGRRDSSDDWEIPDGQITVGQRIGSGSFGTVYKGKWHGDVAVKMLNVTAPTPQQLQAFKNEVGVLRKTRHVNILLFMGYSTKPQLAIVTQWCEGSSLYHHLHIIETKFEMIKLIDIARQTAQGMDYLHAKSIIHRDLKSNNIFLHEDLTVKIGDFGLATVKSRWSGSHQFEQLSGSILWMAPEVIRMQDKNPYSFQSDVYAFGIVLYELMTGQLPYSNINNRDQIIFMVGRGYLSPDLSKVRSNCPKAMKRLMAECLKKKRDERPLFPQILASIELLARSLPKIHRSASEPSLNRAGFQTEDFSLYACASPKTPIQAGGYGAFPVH

`c1cc(-c2cnn3cc(-c4ccc(OCCN5CCCCC5)cc4)cnc23)ccn1` [Dorsomorphin]: the results for the IC50 in test [1] and in test [2] were roughly 500 nM and 50 nM, respectively.

Turning to `COc1cc(-c2cc(-c3cccc(O)c3)cnc2N)cc(OC)c1OC` [K02288, 3-[6-amino-5-(3,4,5-trimethoxy-phenyl)-pyridin-3-yl]-phenol], the IC50 in test [3] was 6.4 nM; in test [4] it was 302 nM; in test [5], 1.8 nM and 1 to 2 nM; in test [6], 34.4 nM. Also, in test [7], the “concentration giving severely dorsalized phenotype” value is 8 to 10 µM. For the same compound, the inhibition at 0.1 µM is 46% in test [8] (0.1 µM inhibitor); 0% in test [9] (0.1 µM inhibitor); 36% in [10] (0.1 µM inhibitor); 6.1% in test [11] (0.1 µM inhibitor); -2% in [12] (0.1 µM inhibitor). Further, the inhibition at 1 µM in test [8] (1 µM inhibitor) is 89%; in test [9] (1 µM inhibitor), 12%; in test [10] (1 µM inhibitor) it was 86%; in [11] (1 µM inhibitor) it was 33%; in [12] (1 µM inhibitor) it was 0.4%.
